Reference: patent publication US10293001B2, “Compositions and methods for restoring or rejuvenating stem/progenitor cell function” (University of Pittsburgh—Of the Commonwealth System of …, priority 2012, dated 2019)

Columns and labels:
Ercc1^−/− MEFs = assay: Reversal of senescence (SA-β-gal) of Ercc1−/− MEFs; type: cell-based, mouse; settings: within 24 hours of treatment
aged WT MDSPCs = assay: Myogenic fusion of aged MDSPCs with IKKβ inhibition; type: cell-based, mouse; parameters: dose or concentration left out as unconfirmed; settings: under fusion conditions
Excerpt: To determine further whether the NF-κB signaling pathway plays a role in driving age-related stem cell dysfunction, whether pharmacologic inhibition of IKK-β would restore the myogenic potential of aged WT MDSPCs was examined. […] MDSPCs were isolated from 30 month old p65^+/− and 24 month old WT mice and compared the myogenic potential of 30 month old p65^+/− MDSPCs in vitro to naturally aged WT MDSPCs. The results confirmed that MDSPCs from p65^+/− aged mice (30 month) were more myogenic than MDSPCs from 24 month old WT mice.

Ercc1^−/Δ mice = assay: Chronic treatment with mitochondrial radical scavenger in progeroid mice; type: in vivo, mouse

O=C(c1ccc(Nc2nccc(-c3cc4ccccc4s3)n2)cc1)N1CCC(N2CCCC2)CC1 [IKKiVII]
reversing senescence of Ercc1−/− MEFs (>60% of cells SA-β gal+) (Ercc1^−/− MEFs): could be reversed

NC(=O)Nc1sc(-c2ccc(F)cc2)cc1C(N)=O [IKKβ inhibitor IV]
fusion index of aged MDSPCs (aged WT MDSPCs): significantly increased

CC(C)C[C@@H](/C=C/[C@H](Cc1ccccc1)C(=O)N1CCC[C@H]1C(=O)N[C@H](C(=O)N[C@@H](CCCNC(=O)OCc1ccccc1)C(=O)NC1CC(C)(C)N([O])C(C)(C)C1)C(C)C)NC(=O)OC(C)(C)C [XJB-5-131]
onset of aging-related degenerative changes (Ercc1^−/Δ mice): delay the onset
